According to US9930893B2, “Inhibitors of DXP synthase and methods of use thereof” (The Johns Hopkins University, priority 2014, dated 2018):
In brackets after ≈: the same amount, converted by molar mass. Several values for one entry are separate records, joined by “and”; a condition that tells them apart may be missing. Identical values can stand only once. Like-named read-outs stand apart in the source and are kept apart here.

Assays:
[1] = target: T1, Porcine pyruvate dehydrogenase (PDH E1 subunit) (Sus scrofa, UniProt P29804); assay: Inhibition of PDH by acetylphosphonates; type: biochemical; conditions: Ki^PDH
T1 construct: Ki^PDH; μM); Ki^PDH
T1 sequence (P29804 1-390): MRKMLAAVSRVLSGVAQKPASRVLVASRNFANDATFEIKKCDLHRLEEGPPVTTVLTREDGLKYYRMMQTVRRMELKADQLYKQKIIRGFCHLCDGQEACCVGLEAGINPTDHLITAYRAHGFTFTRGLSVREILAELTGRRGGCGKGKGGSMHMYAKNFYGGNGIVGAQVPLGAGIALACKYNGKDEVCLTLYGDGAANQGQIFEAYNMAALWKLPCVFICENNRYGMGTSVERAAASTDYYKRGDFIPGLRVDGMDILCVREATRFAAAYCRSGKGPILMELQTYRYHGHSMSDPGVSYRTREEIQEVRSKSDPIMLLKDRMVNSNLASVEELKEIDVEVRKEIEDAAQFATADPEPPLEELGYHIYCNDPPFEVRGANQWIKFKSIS
Method: FIG. 6A, FIG. 6B, and FIG. 6C are charts showing Competitive inhibition of procine PDH E1 subunit by PentAP (FIG. 6A), HexAP (FIG. 6B) and OctAP (FIG. 6C). Inhibition assays were performed as previously described^[18]. Pyruvate concentration was varied from 12.5-250 μM and acetylphosphonate concentration was varied: 0 μM (∘), 250 μM (PentAP) or 200 μM (HexAP and OctAP) (●), 500 μM (□) and 1000 μM (▪). Experiments were performed in triplicate, and data were subjected to non-linear regression analysis for Ki determinations (GraphPad Prism). Representative Lineweaver-Burk plots (GraFit from Erithacus Software) are shown for PentAP (FIG. 6A), HexAP (FIG. 6B) and OctAP (FIG. […]) to illustrate the competitive inhibition mode with respect to pyruvate.
Pyruvate dehydrogenase activity was measured spectrophotometrically as previously reported ^[38] by monitoring absorbance changes at 340 nm due to reduction of NAD^+ by PDH. Reaction mixtures contained 100 mM HEPES (pH 8.0), 1 mg/mL BSA, 0.2 mM ThDP, 0.1 mM coenzyme A, 1 mM MgCl2, 2 mM cysteine, 0.3 mM tris(2-carboxyethyl)phosphine (TCEP). The reaction was initiated with enzyme (0.01 units/ml) and activity was monitored at 30° C. For inhibition studies, reaction mixtures (described above) including BnAP (0.5, 1, 2.25 mM) were pre-incubated at 30° C. for 5 minutes. Initial rates were measured immediately after reactions were initiated by addition of PDH (0.01 units/ml). Double reciprocal analysis of data was carried out using GraFit version 7 from Erithacus Software.

E. coli DXP synthase = target: T2, E. coli DXP synthase (Escherichia coli, UniProt P77488); assay: biochemical
T2 construct: made in house
Method: FIG. 4A, FIG. 4B, and FIG. 4C are charts showing competitive inhibition of DXP synthase by pentylacetylphosphonate (PentAP; FIG. 4A), hexylacetylphosphonate (HexAP; FIG. 4B), and octylacetyl phosphonate (OctAP; FIG. 4C). Inhibition assays were performed as previously described^[18], [40]). […] Pyruvate concentration was varied from 12-240 μM and acetylphosphonate concentration was varied: 0 μM (∘), 10 μM (●), 25 μM (□) and 50 μM (▪). Experiments were performed in triplicate, and data were subjected to non-linear regression analysis for Ki determinations (GraphPad Prism). Representative Lineweaver-Burk plots (GraFit from Erithacus Software) are shown for PentAP (FIG. 4A), HexAP (FIG. 4B) and OctAP (FIG. 4C) to illustrate the competitive inhibition mode with respect to pyruvate.
Inhibition of DXP synthase was measured as previously described^[13], [18]. […] Acetylphosphonate concentration was varied from 0 to 250 μM. […] Experiments were performed in triplicate for BAP and in duplicate for iPrAP
In order to evaluate the inhibitory activity of BnAP against DXP synthase, a continuous spectrophotometric coupled assay was used to measure formation of DXP by monitoring IspC consumption of NADPH (340 nm). ^[2] DXP synthase reaction mixtures (previously described) including BnAP (15, 30, and 60 μM), IspC (1 μM) and NADPH (100 μM) were pre-incubated at 37° C. for 5 minutes. Initial rates were measured after the reaction was initiated by the addition of DXP synthase. Inhibition of the coupling enzyme (IspC) by BnAP was not observed up to 1.5 mM. Experiments were performed in triplicate. Double reciprocal analysis of data was carried out using GraFit version 7 from Erithacus Software.

[2] = tested on: wild-type K-12 E. coli (ATCC: MG1655); assay: Antimicrobial activity against E. coli K-12 grown in CAMHB; type: cell-based; conditions: Escherichia coli, MG1655, 16 h, read-out: minimum inhibitory concentration (MIC90)
Method: FIG. 7A and FIG. 7B are charts showing representative growth curves are shown for BAP (FIG. 7A) and BnAP (FIG. 7B). Alkylacetylphosphonates exert dose-dependent delay in E. coli K-12 (MG 1655) growth in CAMHB. Fractional growth (measured at 16 h, blue arrow) was determined relative to the no drug control. Standardized cell cultures were exposed to increasing concentrations of acetylphosphonate, and growth was determined by measuring the OD600 for a period of 16 hours. Acetylphosphonate concentration was varied from 0-5 mM: No drug (light blue), 0.08 mM (orange), 0.16 mM (gray), 0.31 mM (yellow), 0.63 mM (blue), 1.25 mM (green), 2.5 mM (dark blue) and 5.0 mM (brown).
Thus, BnAP, PentAP, HexAP and OctAP, also shown to inhibit DXP synthase, were evaluated for antimicrobial activity against wild-type K-12 E. coli (ATCC: MG1655) grown in rich medium (CAMHB).

[3] = target: T3, E. coli DXP synthase (DXPS) (Escherichia coli, UniProt P77488); type: biochemical; conditions: for kcat: acceptor substrate turnover
T3 construct: made in house
T3 sequence (P77488 1-620): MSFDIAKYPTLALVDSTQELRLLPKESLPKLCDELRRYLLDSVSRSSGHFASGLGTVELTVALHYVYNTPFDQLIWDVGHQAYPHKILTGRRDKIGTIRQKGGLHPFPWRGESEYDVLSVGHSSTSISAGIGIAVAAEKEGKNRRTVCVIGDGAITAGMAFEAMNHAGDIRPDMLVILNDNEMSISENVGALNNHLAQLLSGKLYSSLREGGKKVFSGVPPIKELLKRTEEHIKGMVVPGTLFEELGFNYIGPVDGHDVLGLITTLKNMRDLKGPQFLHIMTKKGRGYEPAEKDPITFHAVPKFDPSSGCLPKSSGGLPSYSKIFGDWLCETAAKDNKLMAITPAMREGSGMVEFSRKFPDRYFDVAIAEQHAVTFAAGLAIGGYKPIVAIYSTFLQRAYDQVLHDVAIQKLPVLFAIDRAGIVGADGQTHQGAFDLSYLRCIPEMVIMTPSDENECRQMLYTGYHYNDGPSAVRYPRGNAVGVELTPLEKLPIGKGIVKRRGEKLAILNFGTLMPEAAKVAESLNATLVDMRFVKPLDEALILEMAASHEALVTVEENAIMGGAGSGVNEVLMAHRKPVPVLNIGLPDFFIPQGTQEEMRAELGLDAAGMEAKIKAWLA
Method: Reaction mixtures containing 100 mM HEPES, pH 8.0, 2 mM MgCl2, 5 mM NaCl, 1 mM ThDP, 1 mg/mL BSA, 10-20 mM pyruvate, 10% DMSO, 0.5 mM 5 mM nitroso substrate were pre-incubated at 37° C. for 5 min. […] Aliquots of enzymatic mixture were removed at various time intervals and quenched into an equal volume of cold methanol. Quenched mixtures were incubated on ice for 20 minutes. Precipitated proteins were removed by centrifugation, and the supernatant was analyzed by HPLC with UV detection using the following conditions: Flow rate=3 mL/min; Solvent A: 100 mM NH4OAc, pH 4.6; Solvent B: acetonitrile; Method: 0-100% B over 10 min. New products formed were extracted from the supernatant using ethyl acetate (3×). […] Products were subsequently characterized by mass spectrometry.
Reaction mixtures containing 100 mM HEPES, pH 8.0, 2 mM MgCl2, 5 mM NaCl, 1 mM ThDP, 1 mg/mL BSA, 10-20 mM pyruvate, 10% DMSO v/v, and 10-300 μM nitroso substrate were pre-incubated at 37° C. for 5 min. […] Substrate concentration as a function of time was determined from absorbance values using Beer's Law. Initial reaction rates were determined from the linear range of the reaction progress curve, usually within 1-3 min. Data analysis to determine kcat and Km for each alternative substrate was carried out using GraFit version 7 from Erithacus Software.

DXP synthase = target: T4, DXP synthase (Escherichia coli, UniProt P77488); assay: Inhibition of DXP formation by nitroso substrates (HPLC-based assay); type: biochemical, E. coli; conditions: 30 μM D-GAP, 80 μM pyruvate, 37° C.; average ± SEM
T4 construct: made in house
T4 sequence (P77488 1-620): T3 sequence (P77488 1-620)
Method: Enzyme reactions were initiated by addition of 0.1 μM DXP synthase. Aliquots (150 μL) of the enzymatic mixture were removed between 0.5 and 3 minutes and quenched into ice-cold methanol (150 μL). Precipitated protein was removed by centrifugation, and the supernatant was diluted in an equal volume of water. The nitroso substrate was removed by extraction into acetonitrile (3×), using a previously described freeze-extraction technique. ^[32] […] The derivatization mixtures were analyzed by HPLC as previously described. ^[19] To determine initial reaction rates in the presence of varying inhibitor concentration, the D,L-GAP and DXP hydrazone HPLC peak areas were measured, and the product concentration was determined as a percent of total peak area and plotted against reaction time. Initial rates GraFit version 7 from Erithacus Software was utilized to generate IC50 curves.

porcine PDH E1 subunit = type: biochemical
Method: Reaction mixtures containing 100 mM HEPES, pH 8.0, 2 mM MgCl2, 5 mM NaCl, 1 mM ThDP, 1 mg/mL BSA, 10-20 mM pyruvate, 10% DMSO v/v, and 10-300 μM nitroso substrate were pre-incubated at 37° C. for 5 min. Enzymatic reactions were initiated by addition of 0.5-2 μM DXP synthase (or 0.1 units/ml PDH) and monitored spectrophotometrically by measuring the rate of disappearance of the nitroso substrate at its corresponding λmax. Substrate concentration as a function of time was determined from absorbance values using Beer's Law. Initial reaction rates were determined from the linear range of the reaction progress curve, usually within 1-3 min. Data analysis to determine kcat and Km for each alternative substrate was carried out using GraFit version 7 from Erithacus Software.

[4] = Ki (DXP synthase), competitive with respect to pyruvate
[5] = Table 4, read-out: In vitro DXP syn IC50
[6] = 10-20 mM pyruvate, pH 8.0, 10% DMSO, 37° C., average ± SEM
[7] = acceptor substrate, 10-20 mM pyruvate, pH 8.0, 10% DMSO, 37° C., average ± SEM

In the case of `CC(=O)P(=O)(O)OCc1ccccc1` [Compound 1, benzyl acetylphosphonate], the Ki ([1]; Table 5 (no unit in table; μM)) is reported as 880 ± 78 µM, the Ki ([1]; competitive with respect to pyruvate) is reported as 882 ± 78 µM and the Ki (E. coli DXP synthase; [4]) is reported as 10.4 ± 1.3 µM. For the same compound, the Ki (E. coli DXP synthase; Ki (DXP synthase, with respect to D-GAP), uncompetitive with respect to D-GAP, 200 μM pyruvate) was 70 ± 8 µM, the Ki (E. coli DXP synthase; Ki^DXPS, Table 5 (no unit in table; μM), vs pyruvate) was 10 ± 1 µM and the MIC90 [2] was 630 µM (≈ 135 µg/mL).

In the case of `CC(=O)P(=O)(O)OC1Cc2ccccc2C1` [Compound 2], the IC50 (E. coli DXP synthase; [5]) is reported as 64.5 µM.

Work on `COc1cccc(COP(=O)([O-])C(C)=O)c1.[Li+]` [Compound 3] yielded an IC50 (E. coli DXP synthase; [5]) of 37.4 µM, a kcat [3, 6] of 0.6 ± 0.12 s⁻¹ and a Km [3, 7] of 99 ± 16 µM.

Work on `CC(=O)P(=O)([O-])OCCc1cccc2ccccc12.[Li+]` [Compound 5] yielded an IC50 (E. coli DXP synthase; [5]) of 77 µM, a Ki (E. coli DXP synthase; Table 4, read-out: In vitro DXP syn Ki) of 55 µM and a kcat [3, 6] of 0.0183 ± 0.0033 s⁻¹. It also gave a Km [3, 7] of 41 ± 10 µM.

`O=Nc1c(O)ccc2cc(Br)ccc12` [Compound 6] showed a kcat [3, 6] of 0.0333 ± 0.0033 s⁻¹ and a Km [3, 7] of 24 ± 6 µM.

`NS(=O)(=O)c1ccc2c(N=O)c(O)ccc2c1` [Compound 7] gave a kcat [3, 6] of 0.0197 ± 0.00067 s⁻¹ and a Km [3, 7] of 18 ± 4 µM.

With `COc1ccc2ccc(O)c(N=O)c2c1` [Compound 8] the IC50 (DXP synthase) was over 2000 µM, the kcat [3, 6] was 0.0217 ± 0.0033 s⁻¹ and the Km [3, 7] was 63 ± 7 µM.

`Cc1nn(C(C)C)c(C)c1N=O` [Compound 9] was tested, and the IC50 (DXP synthase) was over 2000 µM, the kcat [3, 6] was 0.0233 ± 0.0033 s⁻¹ and the Km [3, 7] was 387 ± 18 µM.

`O=Nc1ccc(O)c2ncccc12` [Compound 10] was tested, and the “substrate usage by DXP synthase” value ([3]; in words) was “did not act as substrate”.

For `C=CCOP(=O)(O)C(C)=O` [Compound 12], the IC50 (E. coli DXP synthase) was 20 µM.

Work on `O=C[C@H](O)COP(=O)(O)O` [D-GAP, D-glyceraldehyde 3-phosphate, reference compound] yielded a kcat [3, 6] of 1.7 ± 0.12 s⁻¹ and a Km ([3]; pH 8) of 28 ± 4 µM.

Compound `CCCCCCOP(=O)(O)C(C)=O` [HexAP, Hexylacetylphosphonate] has a Ki ([1]; Table 5 (no unit in table; μM)) of 117 ± 9 µM, a Ki (E. coli DXP synthase; [4]) of 8.9 ± 0.5 µM and an MIC90 [2] of 5000 µM (≈ 1040 µg/mL).

`O=Nc1ccccc1` [Substrate 1, nitrosobenzene, reference compound] was tested, and the “increase in Km for PDH compared to DXP synthase” value (porcine PDH E1 subunit) was 2.7 fold.

`CC(=O)P(=O)(O)OC(C)C` [iPrAP, Isopropylacetylphosphonate] was tested, and the IC50 (E. coli DXP synthase; pyruvate 95 μM, D-GAP 56 μM, error 95% Confidence Interval, read-out: IC50 (DXP synthase)) was 250 µM and 245 µM.

benzyl acetylphosphonate [Compound 1] gave an IC50 (DXP synthase) of 208 ± 20 µM, a kcat [3, 6] of 2.92 ± 0.317 s⁻¹ and a Km [3, 7] of 133 ± 18 µM. For the same compound, the Km (porcine PDH E1 subunit; 10-20 mM pyruvate, pH 8.0, 37° C., average ± SEM) was 350 ± 30 µM and the “Km^PDH/Km^DXPS” value (porcine PDH E1 subunit; ratio porcine PDH E1 vs E. coli DXPS) was 2.7.
